IC50 data for 22 compounds are collected here from patent US20220370453A1 (Storm Therapeutics Ltd, priority 2019, published 2022).

Molecules are shown by their SMILES.

Experiment [1] concerns the target T1, BCDIN3D (Homo sapiens, UniProt Q7Z5W3).
T1 sequence (Q7Z5W3 1-292): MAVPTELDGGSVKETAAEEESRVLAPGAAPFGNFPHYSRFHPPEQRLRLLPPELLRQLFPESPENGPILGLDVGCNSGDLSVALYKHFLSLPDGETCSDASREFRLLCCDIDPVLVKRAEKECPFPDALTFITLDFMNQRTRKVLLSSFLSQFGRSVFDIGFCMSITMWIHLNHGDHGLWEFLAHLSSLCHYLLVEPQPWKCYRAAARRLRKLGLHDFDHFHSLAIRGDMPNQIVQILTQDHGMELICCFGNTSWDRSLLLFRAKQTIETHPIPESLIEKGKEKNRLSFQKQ
The experiment in a line: BCDIN3D InCellPulse thermal stability assay in transfected A549 cells. The experiment is classed as cell-based. The conditions noted are these: heat shock 58° C. 15 min. As for the experimental part: BCDIN3D InCellPulse™ Assay
The thermal stability assay was performed with lipofectamine 3000 transiently transfected A549 using the plasmid pICP-ePL-BCDIN3 Da. This plasmid encodes for BCDIN3D N-terminally fused to a Prolabel (ePL), complementing a split β-Galactosidase Enzyme System InCELL Pulse Technology (InCELL Hunter Detection Kit, DiscoverX/Eurofins, cat: 96-0079L). 20 μl A549 cells (1500 cell/well) were added with a multidrop device to compounds to a final DMSO concentration of 0.6% in 384-well polypropylene plate format in IMDM medium and pre-incubated with the compounds for 1 h at 37° C. and 5% CO2. Subsequently, a heat shock was applied to the entire sealed plate in a 58° C. water bath for 15 min. The plates were cooled to RT, spun down and 25 μl/well of EA Detection Solution at 3.3× (InCELL Hunter Detection Kit) was added per well. 21 μl of the mixture was added to a black 384-well measurement plate (Corning, PS, black, Flat Bottom, #3575), mix for 30 minutes on a plate shaker at RT. Finally, the luminescence was measured with a Perkin Elmer EnVision with 0.2 s measurement time in luminescence mode.

Experiment [2] deals with T1, BCDIN3D. The experiment is described as follows: BCDIN3D IC50 RFMS (RapidFire) assay with mini-helix. The experiment is classed as biochemical. The conditions noted are these: 25 nM enzyme. Here is the method:
The following General Methods details the assay conditions for the Biological assays.
BCDIN3D IC50 RFMS Assay with Mini-Helix
The enzymatic assay was performed in a 384-well polypropylene plate in assay buffer with 25 mM Tris pH 8.0, 10 mM DTT, 1 mM EDTA, 0.03% BSA in a final assay volume of 20 μL. The enzyme with a final concentration of 25 nM was pre-incubated with the respective compound at 1% DMSO final assay concentration over 10 min at room temperature. The reaction was initiated by addition of 0.2 μM final assay concentration of mini-helix and 6 μM final concentration of SAM as substrates. After a 1 hr incubation at 37° C., the reaction was terminated with 40 μL of stop solution of 7.5% trichloroactetic acid in water containing 112.5 nM D4-SAH and 30 nM ^13C10-SAH used as internal standards. The SAH product concentrations as well as both internal standards were analyzed by a RapidFire High Throughput Mass Spectrometry System (Agilent Technologies, Santa Clara, Calif.) using an AP14000 triple quadrupole mass spectrometer (AB Sciex Framingham, Mass.).

[3] abbreviates: A549 cells transiently transfected with ePL-BCDIN3D, 1 h pre-incubation.
The mark [4] stands for this setting: mini-helix 0.2 μM and SAM 6 μM as substrates, 1 hr at 37° C.
The mark [5] stands for this setting: transiently transfected A549 cells.
[6] abbreviates: mini-helix substrate 0.2 μM, SAM 6 μM.

In the case of `COc1ccc(C(C)Nc2nc(NCCN)nc3c2cnn3C)cc1Cl` (stereo not drawn) [Compound 1.06, N6-(2-aminoethyl)-N4-[1-(3-chloro-4-methoxyphenyl)ethyl]-1-methyl-1H-pyrazolo[3,4-d]pyrimidine-4,6-diamine], the concentration for half-maximal inhibition (IC50) (commonly the concentration that inhibits the measured activity by half) at BCDIN3D [1] (setting [3]) was found to be 2930 nM; against BCDIN3D [2] (setting [4]), 1680 nM.

As for `Cn1ncc2c(Nc3cc(F)cc(Cl)c3)nc(NCC3(N)CC3)nc21` [Compound 2.16, 6-N-[(1-aminocyclopropyl)methyl]-4-N-(3-chloro-5-fluorophenyl)-1-methylpyrazolo[3,4-d]pyrimidine-4,6-diamine], the IC50 stood at 959 nM against BCDIN3D [1] (setting [5]) and 452 nM on BCDIN3D [2] (setting [6]).

Take `Cc1ccc(Nc2nc(NCC3(N)CC3)nc3c2cnn3C)cc1Cl` [Compound 2.09, 6-N-[(1-aminocyclopropyl)methyl]-4-N-(3-chloro-4-methylphenyl)-1-methylpyrazolo[3,4-d]pyrimidine-4,6-diamine]: the results for the 50% inhibitory concentration (IC50) on BCDIN3D [1] (setting [5]) and against BCDIN3D [2] (setting [6]) were 602 nM and 39.8 nM, respectively.

For the compound `[2H]C([2H])([2H])n1ncc2c(Nc3ccc(C(F)(F)F)cc3)nc(NCC3(N)CCC3)nc21` [Compound 3.24, N6-[(1-aminocyclobutyl)methyl]-1-(trideuteriomethyl)-N4-[4-(trifluoromethyl)phenyl]pyrazolo[3,4-d]pyrimidine-4,6-diamine], the results for the IC50 at BCDIN3D [1] (setting [5]) and against BCDIN3D [2] (setting [6]) were 481 nM and 45 nM, respectively.

For `Cn1ncc2c(Nc3ccc(C(F)(F)F)nc3)nc(NCC3(N)CC3)nc21` [Compound 2.45, 6-N-[(1-aminocyclopropyl)methyl]-1-methyl-4-N-[6-(trifluoromethyl)pyridin-3-yl]pyrazolo[3,4-d]pyrimidine-4,6-diamine], the IC50 turned out to be 2470 nM against BCDIN3D [1] (setting [5]) and 424 nM against BCDIN3D [2] (setting [6]).

With `Cn1ncc2c(NC34CC(F)(C3)C4)nc(NC[C@H](N)c3ccccc3)nc21` [Compound 4.67, N6-[(2R)-2-amino-2-phenyl-ethyl]-N4-(3-fluoro-1-bicyclo[1.1.1]pentanyl)-1-methyl-pyrazolo[3,4-d]pyrimidine-4,6-diamine], the IC50 turned out to be 168 nM against BCDIN3D [1] (setting [5]) and 179 nM at BCDIN3D [2] (setting [6]).

For the compound `Cn1ncc2c(NC3CC(F)(F)C3)nc(NC[C@H](N)c3ccccc3)nc21` [Compound 4.85, N6-[(2R)-2-amino-2-phenyl-ethyl]-N4-(3,3-difluorocyclobutyl)-1-methyl-pyrazolo[3,4-d]pyrimidine-4,6-diamine], the results for the IC50 against BCDIN3D [1] (setting [5]) and on BCDIN3D [2] (setting [6]) were 267 nM and 172 nM, respectively.

As to `Cn1ncc2c(Nc3ccc(OC(F)F)cc3)nc(NCC3(N)CCCC3)nc21` [Compound 3.20, 6-N-[(1-aminocyclopentyl)methyl]-4-N-[4-(difluoromethoxy)phenyl]-1-methylpyrazolo[3,4-d]pyrimidine-4,6-diamine], the IC50 against BCDIN3D [1] (setting [5]) is 724 nM; at BCDIN3D [2] (setting [6]), 305 nM.

On to `Cn1ncc2c(Nc3ccc(C(F)(F)F)nc3)nc(NCC3(N)CCOCC3)nc21` [Compound 1.35, 6-N-[(4-aminooxan-4-yl)methyl]-1-methyl-4-N-[6-(trifluoromethyl)pyridin-3-yl]pyrazolo[3,4-d]pyrimidine-4,6-diamine], for which the IC50 at BCDIN3D [1] (setting [3]) was found to be 7880 nM; on BCDIN3D [2] (setting [4]), 3950 nM.

`[2H]C([2H])([2H])n1ncc2c(NC)nc(NCC(N)c3ccccc3)nc21` (stereo not drawn) [Compound 4.38, 6-N-(2-amino-2-phenylethyl)-4-N-methyl-1-(trideuteriomethyl)pyrazolo[3,4-d]pyrimidine-4,6-diamine]: the results for the IC50 on BCDIN3D [1] (setting [5]) and on BCDIN3D [2] (setting [6]) were 9560 nM and 8100 nM, respectively.

`Cn1ncc2c(NCc3ccc(Br)cc3)nc(NCC(N)c3ccccc3)nc21` (stereo not drawn) [Compound 4.07, 6-N-(2-amino-2-phenylethyl)-4-N-[(4-bromophenyl)methyl]-1-methylpyrazolo[3,4-d]pyrimidine-4,6-diamine]: the figures for the IC50 at BCDIN3D [1] (setting [5]) and at BCDIN3D [2] (setting [6]) were 282 nM and 132 nM, respectively.

In the case of `Cn1ncc2c(NCc3ccc(-c4ccccc4)cc3)nc(NCCN)nc21` [Compound 1.05, N6-(2-aminoethyl)-1-methyl-N4-[(4-phenylphenyl)methyl]pyrazolo[3,4-d]pyrimidine-4,6-diamine], the values for the concentration for half-maximal inhibition (IC50) on BCDIN3D [1] (setting [3]) and against BCDIN3D [2] (setting [4]) were 2970 nM and 2210 nM, respectively.

Take `Cn1ncc2c(NC3CCCC3)nc(NC[C@H](N)c3ccccc3)nc21` [Compound 4.113, N6-[(2R)-2-amino-2-phenyl-ethyl]-N4-cyclopentyl-1-methyl-pyrazolo[3,4-d]pyrimidine-4,6-diamine]: the values for the IC50 against BCDIN3D [1] (setting [5]) and against BCDIN3D [2] (setting [6]) were 148 nM and 62 nM, respectively.

In the case of `C[C@H](Nc1nc(NC[C@H](N)c2ccccc2)nc2c1cnn2C)C(F)(F)F` [Compound 4.98, N6-[(2R)-2-amino-2-phenyl-ethyl]-1-methyl-N4-[(1S)-2,2,2-trifluoro-1-methyl-ethyl]pyrazolo[3,4-d]pyrimidine-4,6-diamine], the concentration for half-maximal inhibition (IC50) at BCDIN3D [1] (setting [5]) came out at 232 nM; at BCDIN3D [2] (setting [6]), 136 nM.

Consider `Cn1ncc2c(NCc3ccc(F)c(Cl)c3)nc(NCC(N)c3ccccc3)nc21` (stereo not drawn) [Compound 4.05, 6-N-(2-amino-2-phenylethyl)-4-N-[(3-chloro-4-fluorophenyl)methyl]-1-methylpyrazolo[3,4-d]pyrimidine-4,6-diamine], for which the IC50 against BCDIN3D [1] (setting [5]) was found to be 275 nM; against BCDIN3D [2] (setting [6]) it was 109 nM.

Consider `Cn1ncc2c(Nc3ccc(C(F)(F)F)cc3)nc(NCC(N)C3CCCCC3)nc21` (stereo not drawn) [Compound 3.11, N6-(2-amino-2-cyclohexyl-ethyl)-1-methyl-N4-[4-(trifluoromethyl)phenyl]pyrazolo[3,4-d]pyrimidine-4,6-diamine], for which the IC50 was 65.4 nM against BCDIN3D [1] (setting [5]) and 101 nM against BCDIN3D [2] (setting [6]).

Regarding `Cn1ncc2c(NCc3cccc(Br)c3)nc(NCC3(N)CC3)nc21` [Compound 2.12, 6-N-[(1-aminocyclopropyl)methyl]-4-N-[(3-bromophenyl)methyl]-1-methylpyrazolo[3,4-d]pyrimidine-4,6-diamine], the IC50 on BCDIN3D [1] (setting [5]) turned out to be 1490 nM; at BCDIN3D [2] (setting [6]), 588 nM.

Consider `Cn1ncc2c(Nc3ccc(C(F)F)cc3)nc(NCC3(N)CC3)nc21` [Compound 2.36, 6-N-[(1-aminocyclopropyl)methyl]-4-N-[4-(difluoromethyl)phenyl]-1-methylpyrazolo[3,4-d]pyrimidine-4,6-diamine], for which the IC50 at BCDIN3D [1] (setting [5]) turned out to be 1980 nM; on BCDIN3D [2] (setting [6]) it was 138 nM.

`COc1ccc(CNc2nc(NCCN)nc3c2cnn3C)c(OC)c1` [Compound 1.24, N6-(2-aminoethyl)-N4-[(2,4-dimethoxyphenyl)methyl]-1-methyl-1H-pyrazolo[3,4-d]pyrimidine-4,6-diamine]: the IC50 against BCDIN3D [1] (setting [3]) is 10600 nM; against BCDIN3D [2] (setting [4]), 2250 nM.

As to `COc1ccc(CNc2nc(NCC3(N)CC3)nc3c2cnn3C)c(OC)c1` [Compound 2.42, N6-[(1-aminocyclopropyl)methyl]-N4-[(2,4-dimethoxyphenyl)methyl]-1-methyl-pyrazolo[3,4-d]pyrimidine-4,6-diamine], the IC50 at BCDIN3D [1] (setting [5]) amounted to 2990 nM; against BCDIN3D [2] (setting [6]) it was 1260 nM.

At BCDIN3D [1] (setting [3]), `Cn1ncc2c(NC(C)(C)C)nc(NC[C@H](N)c3ccccc3F)nc21` [Compound 7.12, N6-[(2R)-2-amino-2-(2-fluorophenyl)ethyl]-N4-tert-butyl-1-methyl-pyrazolo[3,4-d]pyrimidine-4,6-diamine] registered an IC50 of 2150 nM.

As for `Cn1ncc2c(NC(C)(C)C)nc(NC[C@H](N)C3CCCCC3)nc21` [Compound 7.22, N6-[(2R)-2-amino-2-cyclohexylethyl]-N4-tert-butyl-1-methyl-1H-pyrazolo[3,4-d]pyrimidine-4,6-diamine], the IC50 on BCDIN3D [2] (setting [4]) was determined as 800 nM.
